Source: patent US20160220569A1, “CDK4/6 Inhibitor Dosage Formulations For The Protection Of Hematopoietic Stem And Progenitor Cells During Chemotherapy” (G1 Therapeutics, Inc., priority 2015, published 2016)
Several values for one entry are separate records, joined by “and”; a condition that tells them apart may be missing. Identical values can stand only once. Like-named read-outs stand apart in the source and are kept apart here.

How the values were obtained:
[1] = 14-day toxicokinetic study in dogs; assay type: in vivo, dogs (Beagle); conditions: male and female dogs
Description: Dogs in the control group were not exposed to Compound 1 and so were a true control group.
The required weight of Compound 1 di-HCl was added to an appropriate size vessel. […] The vessel was placed on a stirring hotplate and the formulation heated to a temperature of 30-35° C. The contents of the vessel were allowed to stir at 30-35° C. or a stir plate until all test article appeared to be dissolved, and for a period of at least 1 hour. The pH of the formulation was verified and adjusted to 4.0-4.5 using 1N HCl or 1N NaOH as required. The formulation was transferred into an appropriate size graduated cylinder. Sufficient vehicle control will be added to the cylinder to obtain the final desired concentration of formulated test article. The completed stock formulation was dispensed into several amber glass bottles as aliquots for each day of dosing. These formulations were stored at controlled room temperature (15-30° C.) until used for dose administration.
The beagle dog was chosen for this study as it is a species that is used for non-clinical toxicity and pharmacokinetic evaluations and satisfies the regulatory requirement for non-clinical safety studies in a non-rodent species. […]

mouse splenocytes = assay: Interferon gamma from splenocytes stimulated ex vivo with anti-CD3/antiCD28 after 5FU; assay type: in vivo, C57BL/6 Mice; conditions: mice pretreated with 100 mg/kg Compound 1, 5FU 50 mg/kg
Text: FIG. 59 is a bar graph of interferon gamma concentration (pg/ml) at day 2 and 7 for mouse splenocytes that were isolated and stimulated ex vivo with anti-CD3/antiCD28.

[2] = system: NCI-H69 mice small cell lung cancer (SCLC) xenograft; assay: NCI-H69 small cell lung cancer xenograft study; assay type: in vivo
Text: FIG. 61 is a graph of tumor size (cubic millimeters) vs time (days) for a small cell lung cancer xenograft model with various dosing regimens.

[3] = Compound 1 PK dosed Days 1-3 with etoposide and carboplatin; assay type: in vivo, human
Description: Analysis of plasma concentration versus time data for calculation of standard pharmacokinetic (PK) parameters following intravenous infusion administration was conducted using Phoenix WinNonlin version 6.3 using a nominal infusion duration and scheduled blood sampling times.

[4] = Hematology (ANC, lymphocytes, hemoglobin, platelets) during etoposide and carboplatin chemotherapy; assay type: in vivo, human; conditions: 200 mg/m^2 with etoposide and carboplatin
Text: As shown in FIG. 63A the absolute neutrophil count though affected by chemotherapy rarely dipped below the G1 phase. As shown in FIG. 63B the lymphocyte count though affected by chemotherapy rarely dipped below the G1 phase. As shown in FIG. 63C the hemoglobin concentration though affected by chemotherapy rarely dipped below the G1 phase. As shown in FIG. 63D the platelet count though affected by chemotherapy rarely dipped below the G1 phase.

Target lesions = assay: Tumor response, Compound 1 with etoposide and carboplatin; assay type: in vivo, human; set-up: Cycle 2 Target Lesion Sum / Cycle4 Target Lesion Sum / Cycle 6 Target Lesion Sum: unit not given here
Text: As shown in FIG. 64 all 6 patients had at least partial responses during the course of 2 to 6 cycles of chemotherapy. Target lesions were summed and response tabulated as follows: […]

[5] = Nonclinical IV and oral pharmacokinetics in dogs; assay type: in vivo; conditions: dog, plasma
[6] = Repeat-dose toxicity in rats (IV 7 days, oral 14 days); assay type: in vivo
Description: (§1) The magnitude and/or duration of this effect differed among cell lineages but was dose-related in all lineages. Effects on hematopoiesis were readily monitored by peripheral blood cell counts and were reversible when dosing stopped.
(§2) In both species, the toxicity profile was similar and the repeat-dose toxicity studies identified no observed adverse effect levels (NOAELs). […] This IV NOAEL was the basis for selecting a starting dose of 6 mg/m^2 for the first clinical trial, which is 1/10th of the lowest safe dose level in any animal study.
In rats, the toxicity profile with oral administration was similar to that with IV administration, except that pulmonary macrophage accumulation occurred with oral administration for 14 days at ≧5 mg/kg (≧30 mg/m^2) but not with IV administration for 7 days at up to 25 mg/kg (≧150 mg/m^2). Based on this finding, the oral NOAEL was 2 mg/kg (≧12 mg/m^2).

[7] = Repeat-dose IV toxicity in dogs; assay type: in vivo
Description: as §1, §2

[8] = 200 mg/m^2 with Etoposide and Carboplatin, Day 1, Max
[9] = 200 mg/m^2 with Etoposide and Carboplatin, Day 1, Min
[10] = 200 mg/m^2 with Etoposide and Carboplatin, Day 1, individual subjects
[11] = 200 mg/m^2 with Etoposide and Carboplatin, Day 3, Max
[12] = 200 mg/m^2 with Etoposide and Carboplatin, Day 3, Min
[13] = 200 mg/m^2 with Etoposide and Carboplatin, Day 3, individual subjects
[14] = Compound 1 200 mg/m^2 followed by etoposide and carboplatin, individual subjects

SMILES: CN1CCN(c2ccc(Nc3ncc4cc5n(c4n3)C3(CCCCC3)CNC5=O)nc2)CC1 [Compound 1, 2′-((5-(4-methylpiperazin-1-yl)pyridin-2-yl)amino)-7′,8′-dihydro-6′H-spiro[cyclohexane-1,9′-pyrazino[1′,2′:1,5]pyrrolo[2,3-d]pyrimidin]-6′-one]
- systemic exposure with increasing dose level [1]: increased roughly proportionally
- interferon gamma levels (mouse splenocytes): did not decrease significantly
- tumor growth suppression ([2]; Compound 1 100 mg/kg qdx5dx4, absence of Topotecan): did not have tumor grown suppression
- tumor suppression vs Topotecan alone ([2]; Compound 1 10, 50 or 100 mg/kg with Topotecan 0.6 mg/kg): significantly higher level of tumor suppression
- AUCinf [3, 8]: 3320 ng·h/mL
- Cmax [3, 8]: 2170 ng/mL
- t½ [3, 8]: 10.6 h
- AUC24.5 [3, 9]: 1530 ng·h/mL
- AUCinf [3, 9]: 1650 ng·h/mL
- Cmax [3, 9]: 587 ng/mL
- t½ [3, 9]: 6.29 h
- AUC24.5 [3, 10]: 2850 ng·h/mL and 1930 ng·h/mL and 2010 ng·h/mL and 2520 ng·h/mL and 1530 ng·h/mL
- AUCinf [3, 10]: 2960 ng·h/mL and 3320 ng·h/mL and 2290 ng·h/mL and 2680 ng·h/mL and 1650 ng·h/mL
- Cmax [3, 10]: 2170 ng/mL and 742 ng/mL and 845 ng/mL and 1840 ng/mL and 587 ng/mL
- t½ [3, 10]: 8.94 h and 10.6 h and 8.91 h and 7.09 h and 7.28 h
- AUCτ [3, 11]: 3300 ng·h/mL
- Cmax [3, 11]: 3360 ng/mL
- AUCτ [3, 12]: 2010 ng·h/mL
- Cmax [3, 12]: 355 ng/mL
- t½ [3, 12]: 6.99 h
- AUCτ [3, 13]: 3300 ng·h/mL and 2010 ng·h/mL and 2630 ng·h/mL and 2610 ng·h/mL and 2890 ng·h/mL
- Cmax [3, 13]: 723 ng/mL and 355 ng/mL and 1190 ng/mL and 3360 ng/mL
- pre-dose concentration averaging ([3]; Day 3, mean): 20.6 ng/mL
- AUC ([3]; human, plasma, intravenous, 200 mg/m2, 200 mg/m^2 with Etoposide and Carboplatin, Day 1, Geo. Mean, read-out: AUC24.5): 2230 ng·h/mL
- AUC(0-inf) ([3]; human, plasma, intravenous, 200 mg/m2, 200 mg/m^2 with Etoposide and Carboplatin, Day 1, Geo. Mean, read-out: AUCinf): 2470 ng·h/mL
- Cmax ([3]; human, plasma, intravenous, 200 mg/m2, 200 mg/m^2 with Etoposide and Carboplatin, Day 1, Geo. Mean, read-out: Cmax): 1070 ng/mL
- half-life ([3]; human, plasma, intravenous, 200 mg/m2, 200 mg/m^2 with Etoposide and Carboplatin, Day 1, Geo. Mean, read-out: t½ (converted)): 8.07 h
- AUC(0-inf) ([3]; human, plasma, intravenous, 200 mg/m2, 200 mg/m^2 with Etoposide and Carboplatin, Day 1, Mean, read-out: AUCinf): 2530 ng·h/mL
- Cmax ([3]; human, plasma, intravenous, 200 mg/m2, 200 mg/m^2 with Etoposide and Carboplatin, Day 1, Mean, read-out: Cmax): 1200 ng/mL
- half-life ([3]; human, plasma, intravenous, 200 mg/m2, 200 mg/m^2 with Etoposide and Carboplatin, Day 1, Mean, read-out: t½ (converted)): 8.19 h
- AUC ([3]; human, plasma, intravenous, 200 mg/m2, 200 mg/m^2 with Etoposide and Carboplatin, Day 1, Median, read-out: AUC24.5): 2270 ng·h/mL
- AUC(0-inf) ([3]; human, plasma, intravenous, 200 mg/m2, 200 mg/m^2 with Etoposide and Carboplatin, Day 1, Median, read-out: AUCinf): 2490 ng·h/mL
- Cmax ([3]; human, plasma, intravenous, 200 mg/m2, 200 mg/m^2 with Etoposide and Carboplatin, Day 1, Median, read-out: Cmax): 923 ng/mL
- half-life ([3]; human, plasma, intravenous, 200 mg/m2, 200 mg/m^2 with Etoposide and Carboplatin, Day 1, Median, read-out: t½ (converted)): 8.09 h
- AUC ([3]; human, plasma, intravenous, 200 mg/m2, 200 mg/m^2 with Etoposide and Carboplatin, Day 1, individual subjects, read-out: AUC24.5): 2860 ng·h/mL
- half-life ([3]; human, plasma, intravenous, 200 mg/m2, 200 mg/m^2 with Etoposide and Carboplatin, Day 1, individual subjects, read-out: t½ (converted)): 6.29 h
- AUC ([3]; human, plasma, intravenous, 200 mg/m2, 200 mg/m^2 with Etoposide and Carboplatin, Day 3, Geo. Mean, read-out: AUCτ): 2530 ng·h/mL
- Cmax ([3]; human, plasma, intravenous, 200 mg/m2, 200 mg/m^2 with Etoposide and Carboplatin, Day 3, Geo. Mean, read-out: Cmax): 1090 ng/mL
- half-life ([3]; human, plasma, intravenous, 200 mg/m2, 200 mg/m^2 with Etoposide and Carboplatin, Day 3, Geo. Mean, read-out: t½ (converted)): 8.95 h
- AUC ([3]; human, plasma, intravenous, 200 mg/m2, 200 mg/m^2 with Etoposide and Carboplatin, Day 3, Mean, read-out: AUCτ): 2570 ng·h/mL
- Cmax ([3]; human, plasma, intravenous, 200 mg/m2, 200 mg/m^2 with Etoposide and Carboplatin, Day 3, Mean, read-out: Cmax): 1380 ng/mL
- half-life ([3]; human, plasma, intravenous, 200 mg/m2, 200 mg/m^2 with Etoposide and Carboplatin, Day 3, Mean, read-out: t½ (converted)): 9.04 h
- AUC ([3]; human, plasma, intravenous, 200 mg/m2, 200 mg/m^2 with Etoposide and Carboplatin, Day 3, Median, read-out: AUCτ): 2620 ng·h/mL
- Cmax ([3]; human, plasma, intravenous, 200 mg/m2, 200 mg/m^2 with Etoposide and Carboplatin, Day 3, Median, read-out: Cmax): 1100 ng/mL
- half-life ([3]; human, plasma, intravenous, 200 mg/m2, 200 mg/m^2 with Etoposide and Carboplatin, Day 3, Median, read-out: t½ (converted)): 9.15 h
- half-life ([3]; human, plasma, intravenous, 200 mg/m2, 200 mg/m^2 with Etoposide and Carboplatin, Day 3, individual subjects, read-out: t½ (converted)): 9.27 h
- AUC(0-inf) ([3]; human, plasma, intravenous, 200 mg/m2, 200 mg/m^2 with etoposide and carboplatin, Day 1, mean, read-out: AUCinf averaged): 2530 ng·h/mL
- Cmax ([3]; human, plasma, intravenous, 200 mg/m2, 200 mg/m^2 with etoposide and carboplatin, Day 1, mean, read-out: Cmax averaged): 1200 ng/mL
- half-life ([3]; human, plasma, intravenous, 200 mg/m2, 200 mg/m^2 with etoposide and carboplatin, Day 1, mean, read-out: Half-lives averaged (converted)): 8.19 h
- half-life ([3]; human, plasma, intravenous, 200 mg/m2, 200 mg/m^2 with etoposide and carboplatin, Day 1, range, read-out: Half-lives range): 6.29 to 10.6 h
- AUC ([3]; human, plasma, intravenous, 200 mg/m2, 200 mg/m^2 with etoposide and carboplatin, Day 3, mean, read-out: AUCτ averaged): 2570 ng·h/mL
- Cmax ([3]; human, plasma, intravenous, 200 mg/m2, 200 mg/m^2 with etoposide and carboplatin, Day 3, mean, read-out: Cmax averaging): 1380 ng/mL
- half-life ([3]; human, plasma, intravenous, 200 mg/m2, 200 mg/m^2 with etoposide and carboplatin, Day 3, mean, read-out: Half-lives averaged (converted)): 9.04 h
- half-life ([3]; human, plasma, intravenous, 200 mg/m2, 200 mg/m^2 with etoposide and carboplatin, Day 3, range, read-out: Half-lives range): 6.99 to 11 h
- concentration at 24.5 h ([3]; human, plasma, intravenous, Day 1, 4 subjects, mean, read-out: concentration at 24.5 hours after the start of infusion, averaging): 20 ng/mL
- concentration at 24.5 h ([3]; human, plasma, intravenous, Day 1, 4 subjects, range, read-out: concentration at 24.5 hours after the start of infusion, range): 11.3 to 35.9 ng/mL
- concentration at 24.5 h ([3]; human, plasma, intravenous, Day 3, mean, read-out: concentration at 24.5 hours after dosing, averaged): 24.6 ng/mL
- concentration at 24.5 h ([3]; human, plasma, intravenous, Day 3, range, read-out: concentration at 24.5 hours after dosing, range): 11.5 to 34.5 ng/mL
- myelotoxicity (ANC, lymphocyte count, hemoglobin, platelet count) [4]: no clinically relevant myelotoxicity
- Cycle 2 Target Lesion Sum (Target lesions; [14]): 74 and 22 and 76 and 161 and 50 and 35
- Cycle4 Target Lesion Sum (Target lesions; [14]): 54 and 0 (2×) and 62 and 146
- Cycle 6 Target Lesion Sum (Target lesions; [14]): 47 and 0
- patients with at least partial responses (Target lesions; Compound 1 200 mg/m^2 with etoposide and carboplatin, 2 to 6 cycles, 6 patients): 6 patients
- half-life ([5]; both sexes, after IV administration): ~4 h
- bioavailability ([5]; oral 10 mg/kg): 30.2%
- bioavailability ([5]; oral 90 mg/kg): 17.1%
- dose with clinically significant leukopenia ([6]; 7 days): ≥ 150 mg/m^2
- dose with pulmonary macrophage accumulation ([6]; oral administration for 14 days): ≥ 5 mg/kg
- NOAEL at 7 days ([6]; rat, in vivo, IV, read-out: NOAEL for IV administration): 10 mg/kg
- NOAEL at 14 days ([6]; rat, in vivo, oral): 2 mg/kg
- dose with clinically significant leukopenia ([7]; dog, in vivo, 7 days): 300 mg/m^2
- dose leading to morbidity and mortality ([7]; dogs, daily doses for 6 days): 900 mg/m^2
